Experiment [1] deals with T1, recombinant full-length human PTPN11 (SHP2) (Homo sapiens, UniProt Q06124).
T1 construct: recombinant full-length human PTPN11 (SHP2), active (SignalChem); purchased SignalChem
T1 sequence (Q06124 1-593): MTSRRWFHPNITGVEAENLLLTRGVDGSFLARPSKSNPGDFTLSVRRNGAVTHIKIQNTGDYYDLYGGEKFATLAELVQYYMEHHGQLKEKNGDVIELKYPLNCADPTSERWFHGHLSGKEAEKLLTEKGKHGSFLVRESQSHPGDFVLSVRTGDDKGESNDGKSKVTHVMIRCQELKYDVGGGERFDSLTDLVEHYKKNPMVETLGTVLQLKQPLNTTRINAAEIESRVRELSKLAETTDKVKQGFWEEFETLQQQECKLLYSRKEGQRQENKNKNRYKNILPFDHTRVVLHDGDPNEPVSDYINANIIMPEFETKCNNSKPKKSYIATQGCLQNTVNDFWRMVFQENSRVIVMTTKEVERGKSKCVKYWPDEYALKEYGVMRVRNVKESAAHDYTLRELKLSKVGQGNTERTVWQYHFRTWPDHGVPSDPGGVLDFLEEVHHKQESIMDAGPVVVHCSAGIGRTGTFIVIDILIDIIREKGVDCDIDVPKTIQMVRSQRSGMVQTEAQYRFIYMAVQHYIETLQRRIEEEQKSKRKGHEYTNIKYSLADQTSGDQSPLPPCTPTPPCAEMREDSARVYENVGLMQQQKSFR
Nature of the experiment: Inhibition of in vitro enzyme activity of SHP2 (DiFMUP fluorescence endpoint assay). The note with it: SHP2 0.5 nM, DiFMUP 200 μM, IRS-1 0.5 μM; 60 min incubation. It counts as biochemical. In a few lines: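 Full-length human SHP2 (0.5 nM) with 0.5 μM IRS1 bis-phosphopeptide preincubated with compound 60 min at room temperature, pH 7.2 HEPES with 5 mM DTT. DiFMUP (200 μM) reacted 30 min, stopped with bpv, fluorescence ex 340/em 450 nm. IC50 by four-parameter logistic fit.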

The target of another experiment is T2, hERG (Homo sapiens, UniProt Q12809).
T2 construct: purchased ThermoFisher
T2 sequence (Q12809 whole entry): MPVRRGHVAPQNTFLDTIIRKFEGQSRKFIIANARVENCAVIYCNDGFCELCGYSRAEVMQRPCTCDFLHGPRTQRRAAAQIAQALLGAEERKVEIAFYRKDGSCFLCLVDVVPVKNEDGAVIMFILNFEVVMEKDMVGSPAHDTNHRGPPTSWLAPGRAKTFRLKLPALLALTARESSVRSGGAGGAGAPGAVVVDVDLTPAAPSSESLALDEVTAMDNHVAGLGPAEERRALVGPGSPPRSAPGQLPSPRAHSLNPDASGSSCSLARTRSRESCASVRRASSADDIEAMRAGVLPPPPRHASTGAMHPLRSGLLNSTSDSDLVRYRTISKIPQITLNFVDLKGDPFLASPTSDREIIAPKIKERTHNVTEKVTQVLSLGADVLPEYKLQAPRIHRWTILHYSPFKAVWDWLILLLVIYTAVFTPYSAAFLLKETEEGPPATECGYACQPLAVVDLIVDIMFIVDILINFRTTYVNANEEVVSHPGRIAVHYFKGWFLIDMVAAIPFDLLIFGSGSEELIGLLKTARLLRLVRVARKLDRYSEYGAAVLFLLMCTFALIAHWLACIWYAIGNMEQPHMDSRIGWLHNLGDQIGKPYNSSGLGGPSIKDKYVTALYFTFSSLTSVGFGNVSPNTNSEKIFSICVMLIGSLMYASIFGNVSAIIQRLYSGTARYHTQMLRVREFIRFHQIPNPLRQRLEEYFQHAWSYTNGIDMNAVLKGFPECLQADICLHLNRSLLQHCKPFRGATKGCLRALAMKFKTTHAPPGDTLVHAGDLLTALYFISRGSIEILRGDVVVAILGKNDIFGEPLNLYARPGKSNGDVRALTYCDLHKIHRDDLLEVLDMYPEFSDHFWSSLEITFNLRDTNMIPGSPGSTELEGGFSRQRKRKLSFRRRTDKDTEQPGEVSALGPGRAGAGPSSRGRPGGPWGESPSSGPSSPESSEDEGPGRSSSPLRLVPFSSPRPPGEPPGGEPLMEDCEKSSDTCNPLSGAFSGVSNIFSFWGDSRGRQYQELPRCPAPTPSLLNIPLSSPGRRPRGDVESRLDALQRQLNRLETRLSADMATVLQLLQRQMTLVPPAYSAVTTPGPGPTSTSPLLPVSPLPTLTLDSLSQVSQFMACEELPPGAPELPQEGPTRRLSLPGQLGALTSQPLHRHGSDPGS
Nature of the experiment: Biochemical assay for hERG inhibition (Predictor hERG Fluorescence Polarization Assay Kit). It counts as binding. As for the experimental part: Test Example 3: Biochemical Assay for hERG Inhibition
kit: Predictor™ hERG Fluorescence Polarization Assay Kit (ThermoFisher) containing:
Compound E4031 as a positive control;
tracer concentration: 1 nM;
incubation duration: 2 hours;
parameters for microplate reader: BMG PHERAstar FS fluorescence microplate reader.
Test group: The test compounds at different concentrations were added into a microplate containing hERG cell membrane, and the tracer with a high affinity for hERG was then added into each well. The microplate was incubated at 25° C. for 2 hours before detection of the change in fluorescence polarization value (mP) (excitation wavelength: 540 nm; emission wavelength: 590 nm) using a multi-mode microplate reader.
Positive control group: The experimental method for the positive control group was the same as that for the test group, except that the test compound was replaced with 30 μM Compound E4031.
Blank control group: The experimental method for the blank control group was the same as that for the test group, except that the test compound was replaced with the hERG buffer and that the hERG cell membrane was not added.
Based on the data ratios, the percentage inhibition (%) of the compounds of the present disclosure against hERG at different concentrations was calculated and the range of the half maximal inhibitory concentration (IC50) of the compounds was determined. Percentage inhibition (%)=(1−(mP of the test compound−mP of the positive control group)/(mP of the blank control group−mP of the positive control group))×100%.

Another experiment deals with T3, CYP2D6 (Homo sapiens, UniProt P10635).
T3 construct: purchased Promega
T3 sequence (P10635 whole entry): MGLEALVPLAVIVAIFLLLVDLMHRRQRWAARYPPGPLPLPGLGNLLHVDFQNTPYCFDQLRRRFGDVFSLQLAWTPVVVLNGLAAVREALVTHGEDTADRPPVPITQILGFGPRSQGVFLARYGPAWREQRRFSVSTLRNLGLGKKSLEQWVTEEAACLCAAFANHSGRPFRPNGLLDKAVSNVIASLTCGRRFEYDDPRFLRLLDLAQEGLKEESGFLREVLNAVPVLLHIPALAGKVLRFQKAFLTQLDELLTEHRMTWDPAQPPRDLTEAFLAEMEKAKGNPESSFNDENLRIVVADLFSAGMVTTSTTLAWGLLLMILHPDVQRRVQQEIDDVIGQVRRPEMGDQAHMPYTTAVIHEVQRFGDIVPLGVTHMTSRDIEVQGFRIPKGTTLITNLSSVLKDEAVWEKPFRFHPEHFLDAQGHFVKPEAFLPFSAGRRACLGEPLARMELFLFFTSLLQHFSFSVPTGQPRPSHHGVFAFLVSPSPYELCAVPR
The experiment can be described thus: Biochemical assay for CYP enzyme inhibition, P450-Glo CYP2D6 Screening System. It counts as in vitro ADME. As for the experimental part:
Test Example 5: Biochemical Assay for CYP Enzyme (Cytochrome P450) Inhibition
P450-Glo™ CYP2D6 Screening System, (Promega);
BMG PHERAstar FS Luminescent.
The experiments were carried out separately according to the instructions of the kits. The steps were as follows:
3.2. Inhibition Against CYP2D6:
Test group: The test compounds at different concentrations were added into a microplate, and Luciferin-ME EGE (3 μM), K3PO4 (100 mM), and CYP2D6 (5 nM) were added into each well, and pre-incubated at room temperature for 10 min. Thereafter, an NADPH regeneration system was added. The mixture was reacted at 37° C. for 30 min. Finally, an equal volume of detection buffer was added and incubated at room temperature for 20 min, followed by chemiluminescence detection.
Negative control group: The experimental method for the negative control group was the same as that for the test group, except that the test compound was not added.
Blank control group: The experimental method for the blank control group was the same as that for the test group, except that the test compound was not added and that CYP2D6 was replaced with CYP2D6 Membrance (5 nM).
Percentage inhibition=(1−(the chemiluminescent signal value of the test compound group at a certain test concentration−the chemiluminescent signal value of the blank control group)/(the chemiluminescent signal value of the negative control group−the chemiluminescent signal value of the blank control group))×100%.
When the percentage inhibition was between 30% and 80%, a single value or a value range of the half maximal inhibitory concentration (IC50) of the compound against the CYP enzyme was estimated based on the following equation: IC50=X×(1−percentage inhibition)/percentage inhibition, wherein X was the test concentration of the compound.

Setting [2] is: estimated from percentage inhibition, read-out: IC50 (μM) CYP2D6.

Read-outs that look alike come from different tables or passages of the source.

For orientation: IC50 means the concentration that gives 50% inhibition. On to `C[C@@H]1OCC2(CCN(c3ncc(Sc4ccnc(N5CC(C)(CO)C5)c4Cl)nc3CO)CC2)[C@@H]1N` [Example 27, (3-((3S,4S)-4-amino-3-methyl-2-oxa-8-azaspiro[4.5]decan-8-yl)-6-(3-chloro-2-(3-(hydroxymethyl)-3-methylazetidin-1-yl)pyridin-4-ylthio)pyrazin-2-yl)methanol], for which the IC50 in experiment [1] was 4.1 nM; on hERG it was over 10 µM; on CYP2D6, over 10 µM.

Turning to `C[C@@H]1OCC2(CCN(c3ncc(Sc4ccnc(NCC5(O)CC5)c4Cl)nc3CO)CC2)[C@@H]1N` [Example 15, 1-((4-(5-((3S,4S)-4-amino-3-methyl-2-oxa-8-azaspiro[4.5]decan-8-yl)-6-(hydroxymethyl)pyrazin-2-ylthio)-3-chloropyridin-2-ylamino)methyl)cyclopropan-1-ol], the 50% inhibitory concentration (IC50) in experiment [1] was 2.4 nM; on hERG it was over 10 µM; against CYP2D6, over 10 µM.

With `Cc1nc(N2CCC3(CC2)CO[C@@H](C)[C@H]3N)c(CO)nc1Sc1ccnc(N2CC(CS(C)(=O)=O)C2)c1Cl` [Example 25, (3-((3S,4S)-4-amino-3-methyl-2-oxa-8-azaspiro[4.5]decan-8-yl)-6-(3-chloro-2-(3-(methylsulfonylmethyl)azetidin-1-yl)pyridin-4-ylthio)-5-methylpyrazin-2-yl)methanol], the IC50 in experiment [1] is 7 nM; on hERG it was over 10 µM; on CYP2D6, over 10 µM.

For the molecule `C[C@@H]1OCC2(CCN(c3ncc(Sc4ccnc(N5CC(C(C)(C)O)C5)c4Cl)nc3CO)CC2)[C@@H]1N` [Example 12, 2-(1-(4-(5-((3S,4S)-4-amino-3-methyl-2-oxa-8-azaspiro[4.5]decan-8-yl)-6-(hydroxymethyl)pyrazin-2-ylthio)-3-chloropyridin-2-yl)azetidin-3-yl)propan-2-ol], the figures for the half-inhibitory concentration (IC50) (in experiment [1]; at hERG; against CYP2D6) were 2.5 nM, over 10 µM and over 10 µM, respectively.

`C[C@@H]1OCC2(CCN(c3ncc(Sc4ccnc(N5CC(C(C)(C)O)C5)c4F)nc3CO)CC2)[C@@H]1N` [Example 40, 2-(1-(4-(5-((3S,4S)-4-amino-3-methyl-2-oxa-8-azaspiro[4.5]decan-8-yl)-6-(hydroxymethyl)pyrazin-2-ylthio)-3-fluoropyridin-2-yl)azetidin-3-yl)propan-2-ol]: the concentration for half-maximal inhibition (IC50) in experiment [1] is 4.13 nM; on hERG it was over 10 µM; against CYP2D6 it was over 10 µM.

On to `C[C@@H]1OCC2(CCN(c3cnc(Sc4ccnc(N5CC(C(C)(C)O)C5)c4Cl)cn3)CC2)[C@@H]1N` [Example 28, 2-(1-(4-(5-((3S,4S)-4-amino-3-methyl-2-oxa-8-azaspiro[4.5]decan-8-yl)pyrazin-2-ylthio)-3-chloropyridin-2-yl)azetidin-3-yl)propan-2-ol], for which the IC50 in experiment [1] was 2.45 nM; on hERG it was over 10 µM; against CYP2D6, over 10 µM.

`CC(C)(O)C1CN(c2nccc(Sc3cnc(N4CCC5(CC4)COC[C@H]5N)c(CO)n3)c2Cl)C1` [Example 13, (S)-2-(1-(4-(5-(4-amino-2-oxa-8-azaspiro[4.5]decan-8-yl)-6-(hydroxymethyl)pyrazin-2-ylthio)-3-chloropyridin-2-yl)azetidin-3-yl)propan-2-ol]: the IC50 in experiment [1] is 4.9 nM; at hERG, over 10 µM; on CYP2D6 (setting [2]) it was over 10 µM.

Turning to `C[C@@H]1OCC2(CCN(c3ncc(Sc4ccnc(N5CC(CS(C)(=O)=O)C5)c4Cl)nc3CO)CC2)[C@@H]1N` [Example 26, (3-((3S,4S)-4-amino-3-methyl-2-oxa-8-azaspiro[4.5]decan-8-yl)-6-(3-chloro-2-(3-(methylsulfonylmethyl)azetidin-1-yl)pyridin-4-ylthio)pyrazin-2-yl)methanol], the 50% inhibitory concentration (IC50) is 0.7 nM in experiment [1], over 10 µM on hERG and over 10 µM against CYP2D6.

Turning to `C[C@@H]1OCC2(CCN(c3ncc(Sc4ccnc(N5CC(CO)(CF)C5)c4Cl)nc3CO)CC2)[C@@H]1N` [Example 42, (3-((3S,4S)-4-amino-3-methyl-2-oxa-8-azaspiro[4.5]decan-8-yl)-6-(3-chloro-2-(3-(fluoromethyl)-3-(hydroxymethyl)azetidin-1-yl)pyridin-4-ylthio)pyrazin-2-yl)methanol], the values for the 50% inhibitory concentration (IC50) (in experiment [1]; at hERG; on CYP2D6 (setting [2])) were 10.2 nM, over 10 µM and over 10 µM, respectively.

These data come from US20230212180A1, “SUBSTITUTED PYRAZINE COMPOUND, PHARMACEUTICAL COMPOSITION COMPRISING SAME, AND USE THEREOF” (Sichuan Kelun-Biotech Biopharmaceutical Co., Ltd., priority 2020, published 2023).
